# Source: PubChem BioAssay AID2060613 (Molecular Pharmacology Branch, DTP, NCI, 2025)
# Where “and” joins values, the source holds several entries; their conditions need not be identical. Equal values may be shown once.
# Test system: 233499-124-R-J3-PDC complex spheroid viability
# Assay: Anticancer human tumor 233499-124-R-J3-PDC patient-derived colon adenocarcinoma cell line growth inhibition [CLK]
# Conditions: for viability, T/C: stronger effect = lower value
# Procedure, shortened: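 Multi-cell-type spheroids combined patient-derived tumor cells with HUVEC endothelial cells and human mesenchymal stem cells. Paired agents were dosed in half-log steps down from about clinical Cmax, or from 10 microM where Cmax was unknown.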
# [1] = curve of first compound, second compound 0.0316 µM
# [2] = curve of first compound, second compound 0.1 µM
# [3] = curve of first compound, second compound 0.316 µM
# [4] = curve of first compound, second compound 1 µM
# [5] = curve of first compound, second compound 3.16 µM
# [6] = curve of first compound, second compound 10 µM
# [7] = second compound 0.0316 µM, first compound 0.0316 µM
# [8] = second compound 0.0316 µM, first compound 0.1 µM
# [9] = second compound 0.0316 µM, first compound 0.316 µM
# [10] = second compound 0.0316 µM, first compound 1 µM
# [11] = second compound 0.0316 µM, first compound 3.16 µM
# [12] = second compound 0.0316 µM, first compound 10 µM
# [13] = second compound 0.1 µM, first compound 0.0316 µM
# [14] = second compound 0.1 µM, first compound 0.1 µM
# [15] = second compound 0.1 µM, first compound 0.316 µM
# [16] = second compound 0.1 µM, first compound 1 µM
# [17] = second compound 0.1 µM, first compound 3.16 µM
# [18] = second compound 0.1 µM, first compound 10 µM
# [19] = second compound 0.316 µM, first compound 0.0316 µM
# [20] = second compound 0.316 µM, first compound 0.1 µM
# [21] = second compound 0.316 µM, first compound 0.316 µM
# [22] = second compound 0.316 µM, first compound 1 µM
# [23] = second compound 0.316 µM, first compound 3.16 µM
# [24] = second compound 0.316 µM, first compound 10 µM
# [25] = second compound 1 µM, first compound 0.0316 µM
# [26] = second compound 1 µM, first compound 0.1 µM
# [27] = second compound 1 µM, first compound 0.316 µM
# [28] = second compound 1 µM, first compound 1 µM
# [29] = second compound 1 µM, first compound 3.16 µM
# [30] = second compound 1 µM, first compound 10 µM
# [31] = second compound 3.16 µM, first compound 0.0316 µM
# [32] = second compound 3.16 µM, first compound 0.1 µM
# [33] = second compound 3.16 µM, first compound 0.316 µM
# [34] = second compound 3.16 µM, first compound 1 µM
# [35] = second compound 3.16 µM, first compound 3.16 µM
# [36] = second compound 3.16 µM, first compound 10 µM
# [37] = second compound 10 µM, first compound 0.0316 µM
# [38] = second compound 10 µM, first compound 0.1 µM
# [39] = second compound 10 µM, first compound 0.316 µM
# [40] = second compound 10 µM, first compound 1 µM
# [41] = second compound 10 µM, first compound 3.16 µM
# [42] = second compound 10 µM, first compound 10 µM
# 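Also: spheroids exposed to the drug combinations for seven days.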
# 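For viability, T/C in this document: percent viability relative to DMSO vehicle control wells taken as 100%.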
compound,measurement,setting,value
C=C(F)C(=O)N1CCN(c2nc(OCC3CCCN3C)nc3c2CCN(c2cccc4cccc(Cl)c24)C3)CC1CC#N (stereo unspecified) + CNC(=O)c1ccc(Nc2nc(OC3CCCC3)c3c(-c4ccc5nc(C)oc5c4)c[nH]c3n2)c(OC)c1,IC50,[1],8.76 µM
same,IC50,[2],4.72 µM
same,IC50,[3],5.57 µM
same,IC50,[4],5.66 µM
same,IC50,[5],5.53 µM
same,IC50,[6],5.2 µM
same,"viability, T/C",[7],92.1%
same,"viability, T/C",[8],84.5%
same,"viability, T/C",[9],99%
same,"viability, T/C",[10],89.6%
same,"viability, T/C",[11],93.5%
same,"viability, T/C",[12],44.5%
same,"viability, T/C",[13],65.9%
same,"viability, T/C",[14],73.2%
same,"viability, T/C",[15],81.3%
same,"viability, T/C",[16],70.2%
same,"viability, T/C",[17],61.4%
same,"viability, T/C",[18],28%
same,"viability, T/C",[19],76.7%
same,"viability, T/C",[20],64.9%
same,"viability, T/C",[21],69.7%
same,"viability, T/C",[22],72.8%
same,"viability, T/C",[23],79.2%
same,"viability, T/C",[24],26.7%
same,"viability, T/C",[25],71.4%
same,"viability, T/C",[26],82.5%
same,"viability, T/C",[27],78.4%
same,"viability, T/C",[28],64%
same,"viability, T/C",[29],71.2%
same,"viability, T/C",[30],30%
same,"viability, T/C",[31],76.8%
same,"viability, T/C",[32],77.3%
same,"viability, T/C",[33],75.8%
same,"viability, T/C",[34],73.1%
same,"viability, T/C",[35],75.7%
same,"viability, T/C",[36],22.9%
same,"viability, T/C",[37],75.5%
same,"viability, T/C",[38],66.3%
same,"viability, T/C",[39],73.8%
same,"viability, T/C",[40],66.5%
same,"viability, T/C",[41],74.3%
same,"viability, T/C",[42],22%
Cn1ncnc1[C@H]1c2n[nH]c(=O)c3cc(F)cc(c23)N[C@@H]1c1ccc(F)cc1,"viability, T/C",compound 0.000316 µM,100% and 107%
same,"viability, T/C",compound 0.001 µM,85.7% and 92%
same,"viability, T/C",compound 0.00316 µM,100% and 103%
same,"viability, T/C",compound 0.01 µM,97.6% and 97.4%
same,"viability, T/C",compound 0.0316 µM,100% and 97.1%
same,"viability, T/C",compound 0.1 µM,103% and 96%
same,IC50,curve of compound,> 0.1 µM
C=CC(=O)N1CCN(c2nc(=O)n(-c3c(C)ccnc3C(C)C)c3nc(-c4c(O)cccc4F)c(F)cc23)C(C)C1 (stereo unspecified) + CN1CCN(c2cc(C(=O)Nc3cc4cc(-c5cnn(C)c5)ccc4cn3)ccn2)CC1,IC50,[1],> 10 µM
same,IC50,[2],> 10 µM
same,IC50,[3],> 10 µM
same,IC50,[4],< 0.0316 µM
same,IC50,[5],< 0.0316 µM
same,IC50,[6],< 0.0316 µM
same,"viability, T/C",[7],91%
same,"viability, T/C",[8],105%
same,"viability, T/C",[9],103%
same,"viability, T/C",[10],102%
same,"viability, T/C",[11],102%
same,"viability, T/C",[12],101%
same,"viability, T/C",[13],99.8%
same,"viability, T/C",[14],102%
same,"viability, T/C",[15],106%
same,"viability, T/C",[16],99.9%
same,"viability, T/C",[17],101%
same,"viability, T/C",[18],108%
same,"viability, T/C",[19],89.6%
same,"viability, T/C",[20],103%
same,"viability, T/C",[21],96%
same,"viability, T/C",[22],88.5%
same,"viability, T/C",[23],92.4%
same,"viability, T/C",[24],82.6%
same,"viability, T/C",[25],3.8%
same,"viability, T/C",[26],11.4%
same,"viability, T/C",[27],1.76%
same,"viability, T/C",[28],2.52%
same,"viability, T/C",[29],1.73%
same,"viability, T/C",[30],0.3%
same,"viability, T/C",[31],0.65%
same,"viability, T/C",[32],0.61%
same,"viability, T/C",[33],0.73%
same,"viability, T/C",[34],0.79%
same,"viability, T/C",[35],1.69%
same,"viability, T/C",[36],1.55%
same,"viability, T/C",[37],0.41%
same,"viability, T/C",[38],0.38%
same,"viability, T/C",[39],0.45%
same,"viability, T/C",[40],0.53%
same,"viability, T/C",[41],0.5%
same,"viability, T/C",[42],1.01%
